Results taken from patent US11839613B2, “Pyrimidine derivatives as PGE2 receptor modulators” (IDORSIA PHARMACEUTICALS LTD, priority 2017, dated 2023).
pIC50: −log10 of the molar value.

Tests used:
PTGER2 (EP2) = PTGER2 (EP2) (Homo sapiens (Human), UniProt P43116); test: hEP2 b-arrestin assay (PathHunter HEK 293 PTGER2 b-arrestin cells); assay type: cell-based; settings: antagonistic activity, beta-arrestin assay; read-out: hEP2 b-arr IC50
Method: Plate is pre-incubated 15 minutes at 37° C. Then five microliters of PGE2 (final conc. 5 μM) are transferred into the assay plate. Plate is incubated 120 minutes at 37° C.
(each concentration is measured in duplicate)

EP2 = EP2 (Homo sapiens (Human), UniProt P43116); test: hEP2 cAMP assay (SF295 glioblastoma cells, HTRF cAMP); assay type: cell-based; settings: antagonistic activity
Sequence of EP2 (P43116 whole entry): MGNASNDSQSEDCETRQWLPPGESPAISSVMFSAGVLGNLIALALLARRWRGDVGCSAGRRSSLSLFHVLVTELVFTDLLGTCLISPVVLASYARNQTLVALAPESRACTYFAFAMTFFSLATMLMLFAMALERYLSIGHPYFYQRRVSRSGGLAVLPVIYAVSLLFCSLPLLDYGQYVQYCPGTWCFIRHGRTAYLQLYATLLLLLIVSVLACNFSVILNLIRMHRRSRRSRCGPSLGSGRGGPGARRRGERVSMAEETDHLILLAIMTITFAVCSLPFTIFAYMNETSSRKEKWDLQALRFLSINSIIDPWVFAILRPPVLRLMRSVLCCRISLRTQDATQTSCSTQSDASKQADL
Summary of the method: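 PGE2-driven cAMP accumulation was measured by HTRF in SF295 cells, which express endogenous EP2 only. Cells in assay buffer with 2 mM IBMX were pre-incubated 45 min at RT, then incubated 30 min at RT. Detection used competition between cellular cAMP and d2-cAMP for a cryptate anti-cAMP antibody.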

EP4 = EP4 (Homo sapiens (Human), UniProt P35408); test: hEP4 cAMP assay (BT549 breast cancer cells, HTRF cAMP); assay type: cell-based; settings: antagonistic activity, PGE2 6 nM
Sequence of EP4 (P35408 whole entry): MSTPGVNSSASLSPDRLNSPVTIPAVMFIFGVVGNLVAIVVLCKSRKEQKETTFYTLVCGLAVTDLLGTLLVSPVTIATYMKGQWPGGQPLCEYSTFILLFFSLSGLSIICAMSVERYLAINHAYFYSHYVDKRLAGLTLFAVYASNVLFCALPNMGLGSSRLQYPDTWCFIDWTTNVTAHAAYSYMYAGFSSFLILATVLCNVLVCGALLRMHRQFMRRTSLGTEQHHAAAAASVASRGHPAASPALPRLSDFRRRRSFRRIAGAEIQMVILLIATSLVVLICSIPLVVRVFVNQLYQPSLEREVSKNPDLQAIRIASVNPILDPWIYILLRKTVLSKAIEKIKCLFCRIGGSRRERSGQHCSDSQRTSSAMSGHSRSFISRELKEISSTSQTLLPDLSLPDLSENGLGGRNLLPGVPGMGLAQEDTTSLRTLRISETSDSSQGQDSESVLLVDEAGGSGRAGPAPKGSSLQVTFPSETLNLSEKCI
Summary of the method: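 BT549 breast cancer cells (endogenous EP4) in HBSS/20 mM HEPES/0.2% BSA/2 mM IBMX preincubated 45 min at RT with compound, then stimulated 30 min at RT with 6 nM PGE2 (final). cAMP read by competitive HTRF immunoassay, signal inversely proportional to cAMP.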

PTGER4 (EP4) = PTGER4 (EP4) (Homo sapiens (Human), UniProt P35408); test: cell-based
Sequence of PTGER4 (EP4) (P35408 whole entry): as above

Sequence of PTGER2 (EP2) (P43116 whole entry): as the sequence (P43116 whole entry) above

Row | Compound | pIC50 (PTGER2 (EP2)) | pIC50 (EP2) | pIC50 (EP4) | pIC50 (PTGER4 (EP4)) | pIC50 (EP4; BT549 cells)
1 | CCCc1cc(-c2cc(NCCc3cc4ccsc4cc3OC)ncn2)ccc1CC(=O)O [Example 385, (4-{6-[2-(6-Methoxy-benzo[b]thiophen-5-yl)-ethylamino]-pyrimidin-4-yl}-2-propyl-phenyl)-acetic acid] | 7.52 | 6.74 | 6.87 | 7.15 | 
2 | CCOc1cc(-c2cc(NCCc3cc4occc4cc3OC)ncn2)ccc1OCC(=O)O [Ex 159, (2-Ethoxy-4-{6-[2-(5-methoxy-benzofuran-6-yl)-ethylamino]-pyrimidin-4-yl}-phenoxy)-acetic acid] | 6.74 | 6.75 | 6.80 | 6.85 | 
3 | CCOc1cc(-c2cc(NCCc3cc4ccoc4cc3OC)ncn2)sc1C(=O)O [Ex 12, 3-Ethoxy-5-{6-[2-(6-methoxy-benzofuran-5-yl)-ethylamino]-pyrimidin-4-yl}-thiophene-2-carboxylic acid] | 8.15 | 8.52 | 8.15 | 7.70 | 
4 | CCOc1cc2c(cc1CCNc1cc(-c3ccc(C(=O)O)c(OC4CCC4)c3)ncn1)OCCO2 [Ex 196, 2-Cyclobutoxy-4-{6-[2-(7-ethoxy-2,3-dihydro-benzo[1,4]dioxin-6-yl)-ethylamino]-pyrimidin-4-yl}-benzoic acid] | 7.68 | 7.43 | 6.66 | 6.70 | 
5 | CCSc1cc(-c2cc(NCCc3cc4c(cc3OC)OCCO4)ncn2)ccc1C(=O)O [Ex 110, 2-Ethylsulfanyl-4-{6-[2-(7-methoxy-2,3-dihydro-benzo[1,4]dioxin-6-yl)-ethylamino]-pyrimidin-4-yl}-benzoic acid] | 7.25 | 7.21 | 7.09 | 6.75 | 
6 | C=C(C(=O)O)c1ccc(-c2cc(NCCc3cc4c(cc3OC)OCCO4)ncn2)cc1 [Ex 337] | 6.18 | 5.88 | 5.84 | 5.88 | 
7 | CCOc1cc(-c2cc(NCCc3ccc4sccc4c3)ncn2)sc1C(=O)O [Ex 5, 5-[6-(2-Benzo[b]thiophen-5-yl-ethylamino)-pyrimidin-4-yl]-3-ethoxy-thiophene-2-carboxylic acid] | 7.41 | 7.55 | 8.52 | 8.30 | 
8 | CCOc1cc(-c2cc(NCCc3ccc4c(c3)OCCO4)ncn2)sc1C(=O)O [Ex 41, 5-{6-[2-(2,3-Dihydro-benzo[1,4]dioxin-6-yl)-ethylamino]-pyrimidin-4-yl}-3-ethoxy-thiophene-2-carboxylic acid] | 6.39 | 6.79 | 7.68 | 7.52 | 
9 | CCCCOc1cc(-c2cc(NCCc3ccc4ccccc4c3C)ncn2)cc(F)c1C(=O)O [Ex 150] | 6.64 | 6.66 | 6.84 | 6.65 | 
10 | COc1cc2c(cc1CCNc1cc(-c3ccc4c(C(=O)O)c[nH]c4c3)ncn1)OCCO2 [Ex 323] | 6.36 | 6.94 | 6.08 | 5.72 | 
11 | CCCOc1cc(-c2cc(NCCc3ccc4ccccc4c3C)ncn2)ccc1C(=O)O [Ex 183, 4-{6-[2-(1-Methyl-naphthalen-2-yl)-ethylamino]-pyrimidin-4-yl}-2-propoxy-benzoic acid] | 6.94 | 7.17 | 6.75 | 6.65 | 
12 | CCCCOc1cc(-c2cc(NCCc3cc(F)c4sccc4c3)ncn2)ccc1C(=O)O [Example 454, 2-Butoxy-4-{6-[2-(7-fluoro-benzo[b]thiophen-5-yl)-ethylamino]-pyrimidin-4-yl}-benzoic acid] | 7.06 | 6.22 |  | 6.67 | 6.65
13 | COc1cc2occc2c(C)c1CCNc1cc(-c2ccc(C(=O)O)c(OC3CCC3)c2)ncn1 [Ex 208, 2-Cyclobutoxy-4-{6-[2-(6-methoxy-4-methyl-benzofuran-5-yl)-ethylamino]-pyrimidin-4-yl}-benzoic acid] | 8.10 | 8.30 | 6.61 | 6.89 | 
14 | Cc1c(CCNc2cc(-c3ccc(C(=O)O)c(CC(C)C)c3)ncn2)ccc2ccccc12 [Ex 76, 2-Isobutyl-4-{6-[2-(1-methyl-naphthalen-2-yl)-ethylamino]-pyrimidin-4-yl}-benzoic acid] | 6.44 | 6.66 | 7.38 | 6.92 | 
15 | COc1cc2c(cc1CCNc1cc(-c3ccc(C(=O)O)c(SC)c3)ncn1)OCCO2 [Ex 116, 4-{6-[2-(7-Methoxy-2,3-dihydro-benzo[1,4]dioxin-6-yl)-ethylamino]-pyrimidin-4-yl}-2-methylsulfanyl-benzoic acid] | 7.12 | 7.64 | 7.07 | 6.87 | 
16 | CCOc1cc(-c2cc(NCCc3c(OC)cc4occc4c3C)ncn2)ccc1OCC(=O)O [Ex 102, (2-Ethoxy-4-{6-[2-(6-methoxy-4-methyl-benzofuran-5-yl)-ethylamino]-pyrimidin-4-yl}-phenoxy)-acetic acid] | 8.05 | 8.22 | 7.15 | 6.85 | 
17 | CCOc1cc(-c2cc(NCCc3ccc4ccccc4c3C)ncn2)sc1C(=O)NS(C)(=O)=O [Example 355, N-(3-Ethoxy-5-{6-[2-(1-methyl-naphthalen-2-yl)-ethylamino]-pyrimidin-4-yl}-thiophene-2-carbonyl)-methanesulfonamide] | 7.26 | 7.34 | 7.02 | 7.54 | 
18 | CCOc1cc(-c2cc(NCCc3ccc4ccccc4c3C)ncn2)sc1CCC(=O)O [Ex 57, 3-(3-Ethoxy-5-{6-[2-(1-methyl-naphthalen-2-yl)-ethylamino]-pyrimidin-4-yl}-thiophen-2-yl)-propionic acid] | 6.71 | 6.72 | 7.55 | 7.47 | 
19 | C#Cc1cc2ccccc2cc1CCNc1cc(-c2ccc(C(=O)O)c(OCC)c2)ncn1 [Ex 105, 2-Ethoxy-4-{6-[2-(3-ethynyl-naphthalen-2-yl)-ethylamino]-pyrimidin-4-yl}-benzoic acid] | 7.40 | 7.12 | 7.14 | 7.28 | 
20 | CCc1nc(-c2cc(NCCc3ccc4ccccc4c3C)ncn2)sc1-c1noc(=O)[nH]1 [Example 353, 3-(4-Ethyl-2-{6-[2-(1-methyl-naphthalen-2-yl)-ethylamino]-pyrimidin-4-yl}-thiazol-5-yl)-[1,2,4]oxadiazol-5(4H)-one] | 6.63 | 6.94 | 6.96 | 8.05 | 
21 | CCOc1cc(-c2cc(NCCc3cc4c(cc3OC)OCO4)ncn2)ccc1CC(=O)O [Ex 299] | 6.51 | 6.60 | 6.35 | 6.44 | 
22 | CCOc1cc(-c2cc(NCCc3cc4ccsc4cc3OC)ncn2)sc1-c1noc(=O)[nH]1 [Example 342, 3-(3-Ethoxy-5-{6-[2-(6-methoxy-benzo[b]thiophen-5-yl)-ethylamino]-pyrimidin-4-yl}-thiophen-2-yl)-[1,2,4]oxadiazol-5(4H)-one] | 8.15 | 7.70 | 7.72 | 8.52 | 
23 | CCOc1cc(-c2cc(NCCc3cc(F)c4sccc4c3)ncn2)ccc1-c1noc(=O)[nH]1 [Example 451, 3-(2-Ethoxy-4-{6-[2-(7-fluoro-benzo[b]thiophen-5-yl)-ethylamino]-pyrimidin-4-yl}-phenyl)-[1,2,4]oxadiazol-5(4H)-one] | 7.15 | 6.18 |  | 7.68 | 7.80
24 | CCCc1cc(-c2cc(NCCc3ccc4ccccc4c3C)ncn2)ccc1C(=O)O [Ex 28, 4-{6-[2-(1-Methyl-naphthalen-2-yl)-ethylamino]-pyrimidin-4-yl}-2-propyl-benzoic acid] | 6.87 | 7.13 | 7.21 | 7.02 | 
25 | CSc1cc(-c2cc(NCCc3ccc4ccoc4c3)ncn2)ccc1C(=O)O [Ex 250, 4-[6-(2-Benzofuran-6-yl-ethylamino)-pyrimidin-4-yl]-2-methylsulfanyl-benzoic acid] | 6.95 | 7.11 | 6.54 | 6.22 | 
26 | CCOc1cc(-c2cc(NCCc3cc4sccc4cc3OC)ncn2)ccc1C(=O)O [Ex 218] | 6.80 | 6.39 | 6.56 | 6.19 | 
27 | CCOc1cc(-c2cc(NCCc3c(F)c(F)c4cc(C)oc4c3OC)ncn2)ccc1C(=O)O [Ex 215] | 5.80 | 6.19 | 6.59 | 6.42 | 
28 | CCOc1cc(-c2cc(NCCc3cc4ccoc4cc3F)ncn2)ccc1OCC(=O)O [Ex 142, (2-Ethoxy-4-{6-[2-(6-fluoro-benzofuran-5-yl)-ethylamino]-pyrimidin-4-yl}-phenoxy)-acetic acid] | 6.92 | 6.75 | 6.90 | 6.74 | 
29 | CCCc1cc(-c2cc(NCCc3cc(F)c4sccc4c3)ncn2)ccc1CC(=O)O [Example 390, (4-{6-[2-(7-Fluoro-benzo[b]thiophen-5-yl)-ethylamino]-pyrimidin-4-yl}-2-propyl-phenyl)-acetic acid] | 6.58 | 6.23 | 7.49 | 7.54 | 
